Key:
Format in all cases: cell-based
[1] = biological target: T1, 3-oxo-5-alpha-steroid 4-dehydrogenase 2 (Homo sapiens, UniProt P31213); experiment: Inhibitory concentration against human steroid 5-alpha-reductase 2 receptor expressed in CHO 1829 cells; la= low activity
T1 sequence (P31213 whole entry): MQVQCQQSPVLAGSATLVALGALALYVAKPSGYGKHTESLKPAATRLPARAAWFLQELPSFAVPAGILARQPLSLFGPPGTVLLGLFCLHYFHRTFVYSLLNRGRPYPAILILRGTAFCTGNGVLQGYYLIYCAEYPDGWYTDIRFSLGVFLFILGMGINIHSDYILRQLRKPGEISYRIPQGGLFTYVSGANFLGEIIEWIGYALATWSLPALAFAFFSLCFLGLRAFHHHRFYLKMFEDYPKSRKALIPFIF

[2] = biological target: T2, 3-oxo-5-alpha-steroid 4-dehydrogenase 1 (Homo sapiens, UniProt P18405); experiment: Inhibitory concentration against human steroid 5-alpha-reductase I receptor expressed in CHO 1827 cells; la= low activity
T2 sequence (P18405 whole entry): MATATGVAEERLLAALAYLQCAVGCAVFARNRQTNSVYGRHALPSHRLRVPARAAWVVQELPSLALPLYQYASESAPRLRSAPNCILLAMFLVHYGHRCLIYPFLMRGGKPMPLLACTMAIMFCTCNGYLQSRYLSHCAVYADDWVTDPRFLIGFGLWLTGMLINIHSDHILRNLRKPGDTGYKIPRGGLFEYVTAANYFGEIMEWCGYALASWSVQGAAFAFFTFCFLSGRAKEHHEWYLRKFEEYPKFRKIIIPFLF

[3] = biological target: T2, 3-oxo-5-alpha-steroid 4-dehydrogenase 1; experiment: Inhibitory concentration against human steroid 5-alpha-reductase I receptor expressed in CHO 1827 cells
[4] = biological target: T1, 3-oxo-5-alpha-steroid 4-dehydrogenase 2; experiment: Inhibitory concentration against human steroid 5-alpha-reductase 2 receptor expressed in CHO 1829 cells

| SMILES | IC50 [1] | IC50 [2] | IC50 [3] | IC50 [4] |
| --- | --- | --- | --- | --- |
| CCN(CC)C(=O)c1ccc2c(c1)CCC1=C(C)C(=O)CCN12 | Low activity | Low activity | – | – |
| CC1=C2CCc3cc(C(=O)Oc4ccc(C(C)(C)C)cc4)ccc3N2CCC1=O | Low activity | – | – | – |
| CC1=C2CCc3cc(C(=O)Oc4ccc(Cl)cc4)ccc3N2CCC1=O | Low activity | – | 1400 nM | – |
| CC1=C2CCc3cc(C(=O)Oc4ccc(N)cc4)ccc3N2CCC1=O | – | – | 272 nM | 801 nM |
| CC1=C2CCc3cc(C(=O)OC(C)(C)C)ccc3N2CCC1=O | Low activity | – | – | – |
| COC(=O)c1ccc2c(c1)CCC1=C(C)C(=O)CCN12 | – | – | – | 2100 nM |
| CC1=C2CCc3cc(C(=O)Oc4ccccc4)ccc3N2CCC1=O | – | – | – | 295 nM |
| CC1=C2CCc3cc(C(=O)Oc4ccc(C(=O)NC(C)(C)C)cc4)ccc3N2CCC1=O | Low activity | – | 225 nM | – |
| COC(=O)c1ccc(OC(=O)c2ccc3c(c2)CCC2=C(C)C(=O)CCN23)cc1 | – | – | 129 nM | 584 nM |
| CC1=C2CCc3cc(C(=O)Nc4ccc(C)cc4)ccc3N2CCC1=O | Low activity | – | 1000 nM | – |
| CCOc1ccc(OC(=O)c2ccc3c(c2)CCC2=C(C)C(=O)CCN23)cc1 | – | – | 209 nM | 3300 nM |
| CC1=C2CCc3cc(C(=O)Oc4cccc(F)c4)ccc3N2CCC1=O | – | – | 160 nM | 134 nM |
| CC1=C2CCc3cc(C(=O)Oc4ccccc4C(F)(F)F)ccc3N2CCC1=O | – | – | 42 nM | 368 nM |
| CC1=C2CCc3cc(C(=O)Oc4ccc(C(N)=O)cc4)ccc3N2CCC1=O | – | – | 361 nM | 308 nM |
| CC1=C2CCc3cc(C(=O)Oc4ccccc4F)ccc3N2CCC1=O | – | – | 138 nM | 166 nM |
| CC(=O)Nc1ccc(OC(=O)c2ccc3c(c2)CCC2=C(C)C(=O)CCN23)cc1 | – | – | 707 nM | 255 nM |
| CC1=C2CCc3cc(C(=O)Oc4ccc(F)cc4)ccc3N2CCC1=O | – | – | 93 nM | 119 nM |
| CCOC(=O)c1ccc2c(c1)CCC1=C(C)C(=O)CCN12 | – | – | – | 4800 nM |
| CC1=C2CCc3cc(C(=O)N(C(C)C)C(C)C)ccc3N2CCC1=O | Low activity | Low activity | – | – |
| CC1=C2CCc3cc(C(=O)OCc4ccccc4)ccc3N2CCC1=O | – | – | – | 9500 nM |
| CC1=C2CCc3cc(C(=O)Oc4ccc(C(F)(F)F)cc4)ccc3N2CCC1=O | – | – | 149 nM | 1200 nM |
| CCCNC(=O)c1ccc(OC(=O)c2ccc3c(c2)CCC2=C(C)C(=O)CCN23)cc1 | – | – | 268 nM | 665 nM |
| CC1=C2CCc3cc(C(=O)OC(C)C)ccc3N2CCC1=O | – | – | – | < 50 nM |
| CC1=C2CCc3cc(C(=O)OCCCO)ccc3N2CCC1=O | Low activity | – | 6990 nM | – |
| CC1=C2CCc3cc(C(=O)Oc4ccc(C)cc4)ccc3N2CCC1=O | – | – | 102 nM | 553 nM |
| CC1=C2CCc3cc(C(=O)NC(C)(C)C)ccc3N2CCC1=O | Low activity | Low activity | – | – |
| COC(=O)c1cccc(OC(=O)c2ccc3c(c2)CCC2=C(C)C(=O)CCN23)c1 | – | – | – | 467 nM |
| CCN(CC)C(=O)c1ccc(OC(=O)c2ccc3c(c2)CCC2=C(C)C(=O)CCN23)cc1 | – | – | 463 nM | 372 nM |
| CC1=C2CCc3cc(C(=O)Oc4cccc(C(F)(F)F)c4)ccc3N2CCC1=O | – | – | 271 nM | 1000 nM |
| COc1ccc(OC(=O)c2ccc3c(c2)CCC2=C(C)C(=O)CCN23)cc1 | – | – | 116 nM | 1200 nM |

— ChEMBL document CHEMBL1145142, “Synthesis and activity of 8-substituted benzo[c]quinolizin-3-ones as dual inhibitors of human 5alpha-reductases 1 and 2” (Bioorg Med Chem Lett, 2005)
